Assay results reported in ChEMBL document CHEMBL4190308, “Drifting of heme-coordinating group in imidazolylmethylxanthones leading to improved selective inhibition of CYP11B1” (Eur J Med Chem, 2017).

Assays:
[1] = organism: Homo sapiens; assay: Selectivity index, ratio of IC50 for human CYP11B2 to IC50 for human CYP11B1
[2] = molecular target: T1, Cytochrome P450 11B2, mitochondrial (Homo sapiens, UniProt P19099); assay: Inhibition of human CYP11B2 expressed in hamster V79MZh cells using [1,2-3H]-11-deoxycorticosterone as substrate after 30 mins by HPTLC analysis; format: cell-based
T1 sequence (P19099 whole entry): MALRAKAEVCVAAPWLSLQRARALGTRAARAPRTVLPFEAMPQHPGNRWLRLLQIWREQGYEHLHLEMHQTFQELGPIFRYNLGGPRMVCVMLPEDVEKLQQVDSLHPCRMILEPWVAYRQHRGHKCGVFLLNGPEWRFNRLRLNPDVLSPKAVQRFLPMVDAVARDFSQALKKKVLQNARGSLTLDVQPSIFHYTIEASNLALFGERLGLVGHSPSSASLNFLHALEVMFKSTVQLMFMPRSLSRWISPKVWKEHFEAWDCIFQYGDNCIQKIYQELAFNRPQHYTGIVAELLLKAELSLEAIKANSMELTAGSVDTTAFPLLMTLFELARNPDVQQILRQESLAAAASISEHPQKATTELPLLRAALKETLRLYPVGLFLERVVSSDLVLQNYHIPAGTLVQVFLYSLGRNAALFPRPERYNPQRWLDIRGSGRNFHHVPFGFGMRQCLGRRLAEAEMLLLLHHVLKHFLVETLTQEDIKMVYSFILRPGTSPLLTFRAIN

[3] = molecular target: T2, Cytochrome P450 11B1, mitochondrial (Homo sapiens, UniProt P15538); assay: Inhibition of human CYP11B1 expressed in hamster V79MZh cells using [1,2-3H]-11-deoxycorticosterone as substrate after 6 hrs by HPTLC analysis; format: cell-based
T2 sequence (P15538 whole entry): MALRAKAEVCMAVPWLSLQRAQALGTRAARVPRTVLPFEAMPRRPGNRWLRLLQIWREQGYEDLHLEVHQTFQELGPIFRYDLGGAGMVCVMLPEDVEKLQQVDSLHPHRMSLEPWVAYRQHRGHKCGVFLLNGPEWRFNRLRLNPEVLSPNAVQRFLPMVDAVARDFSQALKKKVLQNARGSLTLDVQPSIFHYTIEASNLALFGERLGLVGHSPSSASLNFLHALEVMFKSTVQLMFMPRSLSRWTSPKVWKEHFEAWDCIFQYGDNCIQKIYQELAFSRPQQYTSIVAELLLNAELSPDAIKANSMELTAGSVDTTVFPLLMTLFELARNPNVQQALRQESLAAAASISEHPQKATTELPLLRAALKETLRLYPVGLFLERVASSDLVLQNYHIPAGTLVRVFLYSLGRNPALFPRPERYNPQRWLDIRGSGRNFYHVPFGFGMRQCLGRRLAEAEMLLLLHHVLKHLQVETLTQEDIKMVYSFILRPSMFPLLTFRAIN

SMILES: O=c1c2ccc(Br)cc2oc2cc(Cn3ccnc3)ccc12
- Ratio IC50 [1]: 3.9
- IC50 [2]: 0.0444 µM
- IC50 [3]: 0.0114 µM

SMILES: O=c1c2ccccc2oc2cc(Cn3ccnc3)ccc12
- Ratio IC50 [1]: 4.8
- IC50 [2]: 0.344 µM
- IC50 [3]: 0.0708 µM

SMILES: O=c1c2ccc(F)cc2oc2cc(Cn3ccnc3)ccc12
- Ratio IC50 [1]: 6.7
- IC50 [2]: 0.082 µM
- IC50 [3]: 0.0123 µM

SMILES: O=c1c2ccc(Cn3ccnc3)cc2oc2cc(OCC3CC3)ccc12
- Ratio IC50 [1]: 4.7
- IC50 [2]: 0.0223 µM
- IC50 [3]: 0.0047 µM

SMILES: O=c1c2ccccc2oc2cccc(Cn3ccnc3)c12
- Ratio IC50 [1]: 1.2
- IC50 [2]: 0.114 µM
- IC50 [3]: 0.0991 µM

SMILES: CC(C)Oc1ccc2c(=O)c3ccc(Cn4ccnc4)cc3oc2c1
- Ratio IC50 [1]: 4
- IC50 [2]: 0.0166 µM
- IC50 [3]: 0.0041 µM

SMILES: O=c1c2ccccc2oc2c(Cn3ccnc3)cccc12
- Ratio IC50 [1]: 2.9
- IC50 [2]: 0.0437 µM
- IC50 [3]: 0.0151 µM

SMILES: O=c1c2ccc(Cn3ccnc3)cc2oc2cc(OC3CCCC3)ccc12
- Ratio IC50 [1]: 3.5
- IC50 [2]: 0.0203 µM
- IC50 [3]: 0.0058 µM

SMILES: O=c1c2ccc(Cn3ccnc3)cc2oc2cc(Oc3ccccc3)ccc12
- Ratio IC50 [1]: 4
- IC50 [2]: 0.0262 µM
- IC50 [3]: 0.0065 µM

SMILES: O=c1c2ccc(Cn3ccnc3)cc2oc2cc([N+](=O)[O-])ccc12
- Ratio IC50 [1]: 7
- IC50 [2]: 0.135 µM
- IC50 [3]: 0.0192 µM

SMILES: O=c1c2ccccc2oc2ccc(Cn3ccnc3)cc12
- Ratio IC50 [1]: 2.5
- IC50 [2]: 1.14 µM
- IC50 [3]: 0.463 µM

SMILES: O=c1c2ccc(Cl)cc2oc2cc(Cn3ccnc3)ccc12
- Ratio IC50 [1]: 14.4
- IC50 [2]: 0.0953 µM
- IC50 [3]: 0.0066 µM

SMILES: COc1ccc2c(=O)c3ccc(Cn4ccnc4)cc3oc2c1
- Ratio IC50 [1]: 2.9
- IC50 [2]: 0.0454 µM
- IC50 [3]: 0.0154 µM
